Like-named read-outs stand apart in the source and are kept apart here.
What was measured:
GT-3 HCV NS3/4A protease [1] = target: GT-3 HCV NS3/4A protease (Hepatitis C virus genotype 3a, UniProt Q81258); test: biochemical
GT-3 HCV NS3/4A protease [2] = test: biochemical; set-up: species or system Hepatitis C virus genotype 3a; settings: for fold change (FC) in Ki, GT-3 relative to GT-1: GT-3 Ki / GT-1 Ki; for loss in affinity in GT-3 relative to GT-1: GT-3 vs GT-1
[3] = tested on: GT-1a NS3/4A protease with D168Q; type: biochemical, Hepatitis C virus genotype 1a; settings: GT-1a D168Q vs GT-1 WT protease
[4] = tested on: GT-1a NS3/4A protease with R123T/I132L/D168Q (1a3a); test: Enzyme inhibition assay, chimeric 1a3a NS3/4A protease; type: biochemical, Hepatitis C virus; settings: 1a3a chimera vs GT-1 WT
GT-1 HCV NS3/4A protease = settings: read-out: Ki against GT-1 NS3/4A protease; GT-1a wild type; cited from earlier work
[5] = tested on: HCV GT-3 subgenomic replicon; settings: viral subgenomic replicon models; range over the named PIs; cited from earlier work
[6] = target: GT-1a NS3/4A protease with D168Q (Hepatitis C virus genotype 1a, UniProt P27958, D1194Q); type: biochemical; settings: GT-1a D168Q

SMILES | Ki in GT-3 (in words) (GT-3 HCV NS3/4A protease [1]) | fold change (FC) in Ki, GT-3 relative to GT-1 (GT-3 HCV NS3/4A protease [2]) [fold] | fold change (loss) in potency, D168Q relative to GT-1 WT [3] [fold] | loss in potency, R123T/I132L/D168Q (1a3a) relative to GT-1 WT [4] | Ki (GT-1 HCV NS3/4A protease) [nM] | loss in activity against GT-3 compared to GT-1 [5] | Ki (GT-3 HCV NS3/4A protease [1]; read-out: Ki against GT-3 NS3/4A protease, GT-3a) [nM] | loss in affinity in GT-3 relative to GT-1 (GT-3 HCV NS3/4A protease [2]) | inhibition constant against D168Q (in words) [6] | Ki (GT-3 HCV NS3/4A protease [1]) [nM]
C=C[C@@H]1C[C@]1(NC(=O)[C@@H]1C[C@@H](Oc2ncc(OC)c3ccc(Cl)cc23)CN1C(=O)[C@@H](NC(=O)OC(C)(C)C)C(C)(C)C)C(=O)NS(=O)(=O)C1CC1 [ASV, asunaprevir] | low to submicromolar | 975 | 72 | 2–3 orders of magnitude | 2.7 | – | – | – | – | –
CC(C)(C)OC(=O)N[C@H]1CCCCC/C=C\[C@@H]2C[C@@]2(C(=O)NS(=O)(=O)C2CC2)NC(=O)[C@@H]2C[C@@H](OC(=O)N3Cc4cccc(F)c4C3)CN2C1=O [DAN, danoprevir] | low to submicromolar | 878 | 30 | 2–3 orders of magnitude | 1 | 140- to 1500 fold | – | – | – | –
CC[C@@H]1C[C@]1(NC(=O)[C@@H]1C[C@@H](Oc2cc(-c3csc(NC(C)C)n3)nc3c(Cl)c(OCCN4CCOCC4)ccc23)CN1C(=O)[C@@H](NC(=O)O[C@@H]1C[C@@H]2C[C@@H]2C1)C(C)(C)C)C(=O)O [GS-9451] | – | – | – | – | – | 140- to 1500 fold | – | – | – | –
COc1ccc2nc3c(nc2c1)O[C@@H]1C[C@H]2C(=O)N[C@]4(C(=O)NS(=O)(=O)C5(C)CC5)C[C@H]4/C=C/CCCCC[C@H](NC(=O)O[C@@H]4CCC[C@H]4CCCCC3)C(=O)N2C1 [MK-6325] | – | – | 4 | 2–3 orders of magnitude | 0.1 | – | 31 | 2–3 orders of magnitude | subnanomolar | –
CC[C@@H]1C[C@]1(NC(=O)[C@@H]1C[C@@H]2CN1C(=O)[C@H](C(C)(C)C)NC(=O)OCC(C)(C)CCCCc1cccc3c1CN(C3)C(=O)O2)C(=O)NS(=O)(=O)C1CC1 [VAN, vaniprevir] | low to submicromolar | 533 | 44 | 2–3 orders of magnitude | 0.7 | – | – | – | – | –
CC(C)(C)NC(=O)N[C@H](C(=O)N1C[C@H]2[C@@H]([C@H]1C(=O)NC(CC1CCC1)C(=O)C(N)=O)C2(C)C)C(C)(C)C (stereo partly drawn) [boceprevir] | – | 2.2 | 0.7 | – | 33 | – | – | – | – | 71
C=C[C@@H]1C[C@]1(NC(=O)[C@@H]1C[C@@H]2CN1C(=O)[C@H](C(C)(C)C)NC(=O)O[C@@H]1C[C@H]1CCCCCc1nc3ccc(OC)cc3nc1O2)C(=O)NS(=O)(=O)C1CC1.O [grazoprevir] | – | – | – | 2–3 orders of magnitude | 0.1 | 140- to 1500 fold | – | 2–3 orders of magnitude | – | –
COc1ccc2c(O[C@@H]3C[C@H]4C(=O)N[C@]5(C(=O)NS(=O)(=O)C6CC6)C[C@H]5/C=C\CCCCN(C)C(=O)[C@@H]4C3)cc(-c3nc(C(C)C)cs3)nc2c1C [simeprevir] | – | – | – | – | – | 140- to 1500 fold | – | – | – | –
CCC[C@H](NC(=O)[C@@H]1[C@H]2CCC[C@H]2CN1C(=O)[C@@H](NC(=O)[C@@H](NC(=O)c1cnccn1)C1CCCCC1)C(C)(C)C)C(=O)C(=O)NC1CC1 [telaprevir] | – | 8 | 1.2 | – | 33 | – | – | – | – | 266
